How the values were obtained:
Experiment in all cases: Kinase profiling in a biochemical assay panel (mobility shift assays and ELISA), %-inhibition at 1 μM; selectivity entropy
[1] = molecular target: T1, panel of more than 300 wild-type and mutant kinases (313 kinase panel) (Homo sapiens, UniProt O15264)
T1 sequence (O15264 1-365): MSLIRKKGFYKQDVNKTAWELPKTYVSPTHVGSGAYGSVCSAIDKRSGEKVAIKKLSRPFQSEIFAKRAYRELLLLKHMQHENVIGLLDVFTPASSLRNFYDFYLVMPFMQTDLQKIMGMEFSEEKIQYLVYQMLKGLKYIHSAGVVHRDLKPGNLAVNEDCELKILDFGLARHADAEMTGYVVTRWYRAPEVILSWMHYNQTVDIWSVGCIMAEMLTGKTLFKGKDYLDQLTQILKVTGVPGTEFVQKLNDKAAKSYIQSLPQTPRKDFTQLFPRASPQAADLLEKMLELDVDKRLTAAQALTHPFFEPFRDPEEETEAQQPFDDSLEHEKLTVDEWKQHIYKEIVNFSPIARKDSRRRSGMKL

[2] = molecular target: panel of more than 300 wild-type and mutant kinases (313 kinase panel) (Homo sapiens, UniProt Q07912)
[3] = molecular target: T2, panel of more than 300 wild-type and mutant kinases (313 kinase panel) (Homo sapiens, UniProt P46734)
T2 sequence (P46734 1-347): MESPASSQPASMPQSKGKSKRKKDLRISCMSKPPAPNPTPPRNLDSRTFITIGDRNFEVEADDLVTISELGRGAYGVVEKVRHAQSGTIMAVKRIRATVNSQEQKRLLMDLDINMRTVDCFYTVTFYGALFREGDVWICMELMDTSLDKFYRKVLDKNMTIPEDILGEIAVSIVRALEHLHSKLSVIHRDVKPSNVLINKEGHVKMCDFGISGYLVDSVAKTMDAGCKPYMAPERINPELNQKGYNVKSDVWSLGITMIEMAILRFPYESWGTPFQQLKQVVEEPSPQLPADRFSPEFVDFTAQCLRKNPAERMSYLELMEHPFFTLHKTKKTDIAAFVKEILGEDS

[4] = molecular target: T3, panel of more than 300 wild-type and mutant kinases (313 kinase panel) (Homo sapiens, UniProt Q13237)
T3 sequence (Q13237 1-762): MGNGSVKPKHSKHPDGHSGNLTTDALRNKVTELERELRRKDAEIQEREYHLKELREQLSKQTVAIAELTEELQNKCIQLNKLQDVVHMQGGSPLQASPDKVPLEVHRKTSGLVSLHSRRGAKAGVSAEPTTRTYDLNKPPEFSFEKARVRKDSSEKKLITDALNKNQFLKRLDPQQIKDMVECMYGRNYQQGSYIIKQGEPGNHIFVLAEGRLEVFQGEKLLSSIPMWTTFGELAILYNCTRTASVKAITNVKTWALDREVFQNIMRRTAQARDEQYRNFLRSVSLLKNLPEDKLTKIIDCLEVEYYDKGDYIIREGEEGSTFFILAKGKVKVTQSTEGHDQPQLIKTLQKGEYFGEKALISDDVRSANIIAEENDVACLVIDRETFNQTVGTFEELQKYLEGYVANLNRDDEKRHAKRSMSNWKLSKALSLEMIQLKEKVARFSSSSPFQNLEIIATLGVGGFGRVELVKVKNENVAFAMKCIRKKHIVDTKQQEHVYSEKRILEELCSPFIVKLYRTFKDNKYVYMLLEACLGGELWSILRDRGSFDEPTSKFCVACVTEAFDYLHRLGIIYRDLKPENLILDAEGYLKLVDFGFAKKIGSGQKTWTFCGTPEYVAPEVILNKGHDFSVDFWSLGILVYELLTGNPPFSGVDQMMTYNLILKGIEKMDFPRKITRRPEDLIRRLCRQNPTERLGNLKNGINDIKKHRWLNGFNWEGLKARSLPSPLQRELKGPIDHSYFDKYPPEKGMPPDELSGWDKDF

[5] = molecular target: panel of more than 300 wild-type and mutant kinases (313 kinase panel) (Homo sapiens, UniProt Q8TDX7)
[6] = molecular target: panel of more than 300 wild-type and mutant kinases (313 kinase panel) (Homo sapiens, UniProt Q9HC98)
[7] = kinase MAP2K3, compound at 1 μM

Chain of panel of more than 300 wild-type and mutant kinases (313 kinase panel) (Homo sapiens, UniProt Q07912) (Q07912 whole entry, change not shown): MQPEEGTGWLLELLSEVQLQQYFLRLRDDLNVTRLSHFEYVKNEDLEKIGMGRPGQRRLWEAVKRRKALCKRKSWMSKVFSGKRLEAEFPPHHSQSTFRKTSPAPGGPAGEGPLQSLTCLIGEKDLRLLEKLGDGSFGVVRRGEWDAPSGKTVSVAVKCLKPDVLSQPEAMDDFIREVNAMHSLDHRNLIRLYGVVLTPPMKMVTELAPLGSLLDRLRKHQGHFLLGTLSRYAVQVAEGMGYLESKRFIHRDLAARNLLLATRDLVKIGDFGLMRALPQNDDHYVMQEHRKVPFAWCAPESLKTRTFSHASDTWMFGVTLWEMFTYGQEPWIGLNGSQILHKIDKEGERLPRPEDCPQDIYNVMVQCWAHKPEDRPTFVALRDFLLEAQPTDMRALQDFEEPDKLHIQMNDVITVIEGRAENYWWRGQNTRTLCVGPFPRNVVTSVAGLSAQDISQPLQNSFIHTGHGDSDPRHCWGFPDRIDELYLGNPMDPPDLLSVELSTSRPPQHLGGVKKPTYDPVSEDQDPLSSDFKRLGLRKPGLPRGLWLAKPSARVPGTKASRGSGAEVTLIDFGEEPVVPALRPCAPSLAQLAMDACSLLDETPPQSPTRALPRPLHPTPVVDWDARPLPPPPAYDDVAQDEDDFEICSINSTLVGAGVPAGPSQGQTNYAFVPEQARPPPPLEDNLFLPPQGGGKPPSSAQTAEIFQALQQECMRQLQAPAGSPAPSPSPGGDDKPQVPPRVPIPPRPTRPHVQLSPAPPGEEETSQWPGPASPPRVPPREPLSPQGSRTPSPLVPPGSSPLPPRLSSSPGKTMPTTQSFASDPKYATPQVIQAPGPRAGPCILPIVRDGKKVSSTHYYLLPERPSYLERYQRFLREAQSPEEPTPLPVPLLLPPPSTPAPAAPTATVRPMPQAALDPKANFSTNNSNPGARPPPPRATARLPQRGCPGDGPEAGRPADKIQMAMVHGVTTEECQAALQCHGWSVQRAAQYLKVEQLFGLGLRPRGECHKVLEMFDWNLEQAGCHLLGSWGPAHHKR

Structure (SMILES) | %-inhibition of p38δ ([1]; kinase p38δ, 1 μM) | %-inhibition, ACK ([2]; kinase ACK, 1 μM compound) | %-inhibition of MAP2K3 [3, 7] | %-inhibition, CGK2 ([4]; kinase CGK2, 1 μM compound) | %-inhibition of NEK7 ([5]; kinase NEK7, 1 μM) | %-inhibition of NEK6 ([6]; kinase NEK6, 1 μM) | %-inhibition of MAP2K3 ([3]; 1 µM) | %-inhibition of NEK6 ([6]; 1 µM) | %-inhibition, ACK ([2]; 1 µM) | %-inhibition of NEK7 ([5]; 1 µM) | %-inhibition of p38δ ([1]; 1 µM) | %-inhibition, CGK2 ([4]; 1 µM)
CC(C)(C)c1nc(-c2cccc(NS(=O)(=O)c3c(F)cccc3F)c2F)c(-c2ccnc(N)n2)s1 [dabrafenib] | -3.43% | 24% | 11% | -1.38% | 2.28% | -3% | – | – | – | – | – | –
CCCS(=O)(=O)Nc1ccc(F)c(C(=O)c2c[nH]c3ncc(-c4ccc(Cl)cc4)cc23)c1F [vemurafenib] | 8% | 40% | 34% | -2.26% | -3.56% | -1.43% | – | – | – | – | – | –
Cc1nc(Nc2ncc(C(=O)Nc3c(C)cccc3Cl)s2)cc(N2CCN(CCO)CC2)n1 [dasatinib] | 0.799% | – | 35% | -6% | – | – | – | – | – | – | – | –
C[C@@H](Oc1cc(-c2cnn(C3CCNCC3)c2)cnc1N)c1c(Cl)ccc(F)c1Cl [crizotinib] | -3.41% | – | 12% | -0.915% | -5.3% | -2.72% | – | – | – | – | – | –
Cc1ccc(C(=O)Nc2ccc(CN3CCN(C)CC3)c(C(F)(F)F)c2)cc1C#Cc1cnc2cccnn12 [ponatinib] | – | 99% | – | 12% | -10% | -10% | – | – | – | – | – | –
O=S(=O)(c1cccc2cnccc12)N1CCCNCC1 [fasudil] | -4.39% | 0.581% | -4% | 46% | -1.52% | -2.46% | – | – | – | – | – | –
COc1cc(Nc2c(C#N)cnc3cc(OCCCN4CCN(C)CC4)c(OC)cc23)c(Cl)cc1Cl [bosutinib] | – | 97% | – | -0.53% | – | – | 34% | -6% | – | – | – | –
CO[C@H]1C[C@@H]2CC[C@@H](C)[C@@](O)(O2)C(=O)C(=O)N2CCCC[C@H]2C(=O)O[C@H]([C@H](C)C[C@@H]2CC[C@@H](OCCO)[C@H](OC)C2)CC(=O)[C@H](C)/C=C(\C)[C@@H](O)[C@@H](OC)C(=O)[C@H](C)C[C@H](C)/C=C/C=C/C=C/1C [everolimus] | -9% | -4.62% | 10% | -4.58% | -11% | -6.38% | – | – | – | – | – | –
Cc1ccc(Nc2nccc(N(C)c3ccc4c(C)n(C)nc4c3)n2)cc1S(N)(=O)=O [pazopanib] | -0.586% | 13% | 47% | -1% | -4.75% | -3% | – | – | – | – | – | –
CNC(=O)c1cc(Oc2ccc(NC(=O)Nc3ccc(Cl)c(C(F)(F)F)c3)c(F)c2)ccn1 [regorafenib] | 2.22% | -3.35% | 90% | -1.78% | -13% | -6.48% | – | – | – | – | – | –
CC(=O)Nc1cccc(-n2c(=O)n(C3CC3)c(=O)c3c(Nc4ccc(I)cc4F)n(C)c(=O)c(C)c32)c1 [trametinib] | -2.7% | -5.39% | 3% | -2.61% | 1.63% | -0.324% | – | – | – | – | – | –
CO[C@H]1C[C@@H]2CC[C@@H](C)[C@@](O)(O2)C(=O)C(=O)N2CCCC[C@H]2C(=O)O[C@H]([C@H](C)C[C@@H]2CC[C@@H](OC(=O)C(C)(CO)CO)[C@H](OC)C2)CC(=O)[C@H](C)/C=C(\C)[C@@H](O)[C@@H](OC)C(=O)[C@H](C)C[C@H](C)/C=C/C=C/C=C/1C [temsirolimus] | -5.63% | -8% | 10% | -2.84% | -8% | -3.31% | – | – | – | – | – | –
CS(=O)(=O)CCNCc1ccc(-c2ccc3ncnc(Nc4ccc(OCc5cccc(F)c5)c(Cl)c4)c3c2)o1 [lapatinib] | 5.43% | – | 13% | -9% | – | -4.3% | – | – | 2.36% | -0.744% | – | –
COc1cc2c(Nc3ccc(Br)cc3F)ncnc2cc1OCC1CCN(C)CC1 [vandetanib] | 0.0923% | 24% | 16% | -2.65% | -6% | -4.3% | – | – | – | – | – | –
COc1cc2nccc(Oc3ccc(NC(=O)C4(C(=O)Nc5ccc(F)cc5)CC4)cc3)c2cc1OC [cabozantinib] | 47% | 30% | 72% | -2.55% | -6% | -3.21% | – | – | – | – | – | –
N#CC[C@H](C1CCCC1)n1cc(-c2ncnc3[nH]ccc23)cn1 [ruxolitinib] | 0.0923% | 93% | 27% | – | -1.81% | -6% | – | – | – | – | – | –
Cc1cn(-c2cc(NC(=O)c3ccc(C)c(Nc4nccc(-c5cccnc5)n4)c3)cc(C(F)(F)F)c2)cn1 [nilotinib] | -10% | 13% | 94% | 12% | -3.77% | 1% | – | – | – | – | – | –
C#Cc1cccc(Nc2ncnc3cc(OCCOC)c(OCCOC)cc23)c1 [erlotinib] | – | – | – | – | – | – | 10% | 2% | 37% | 0.893% | 6% | -1.7%

Reference: PMC3961306, “Comparison of the Cancer Gene Targeting and Biochemical Selectivities of All Targeted Kinase Inhibitors Approved for Clinical Use” (PLoS ONE, 2014)
